Measurements published in patent US7825160B2, “(Biphenyl) carboxylic acids and derivatives thereof” (Cellzome Limited, priority 2004, dated 2010).

What follows are molecules tested on γ-secretase activity (assay: Screening for γ-secretase-modulating activity in SKN neuroblastoma cells carrying APP swedish mutant). Details: read-out: IC50 on the γ-secretase activity, Activity range.
Format: cell-based
Experimental: Screening was carried out using SKN neuroblastoma cells carrying the APP-“swedish mutant” (point mutations at position 595 and 596, numbering based on APP695) grown in DMEM/NUT-mix F12 (HAM) provided by Gibco (cat no. 31330-38) containing 5% Serum/Fe supplemented with 1% non-essential amino acids, 100 U/ml Pen/Strep.
Cells were grown to near confluency.
The screening was performed using the assay as described in Citron et al (1997) Nature Medicine 3: 67.
IC50-Values of Selected Compounds of the Invention on the γ-Secretase Activity.

Compound	IC50 [µM]
O=C(O)Cc1cc(OCc2ccccc2)cc(-c2ccc(O)cc2)c1 [XXV, (5-Benzyloxy-4′-hydroxy-biphenyl-3-yl)-acetic acid]	100 to 300
CC(=O)Nc1ccc(-c2cc(CC(=O)O)cc(OCc3ccccc3)c2)cc1 [XXIV, (4′-Acetylamino-5-benzyloxy-biphenyl-3-yl)-acetic acid]	100 to 300
O=C(O)Cc1cc(OCC2CCCCO2)cc(-c2ccc(C(F)(F)F)cc2)c1 (stereo not shown) [LII, [5-(Tetrahydro-pyran-2-ylmethoxy)-4′-trifluoromethyl-biphenyl-3-yl]-acetic acid]	100 to 300
O=C(O)Cc1cc(OCc2ccccc2)cc(-c2cccc(C(F)(F)F)c2)c1 [XXXIII, (5-Benzyloxy-3′-trifluoromethyl-biphenyl-3-yl)-acetic acid]	10 to 100
O=C(O)Cc1cc(OCc2ccc(S(=O)(=O)N3CCOCC3)cc2)cc(-c2ccc(C(F)(F)F)cc2)c1 [LVI, {5-[4-(Morpholine-4-sulfonyl)-benzyloxy]-4′-trifluoromethyl-biphenyl-3-yl}-acetic acid]	10 to 100
O=C(O)Cc1cc(OCC2CCOCC2)cc(-c2ccc(C(F)(F)F)cc2)c1 [XLV, [5-(Tetrahydro-pyran-4-ylmethoxy)-4′-trifluoromethyl-biphenyl-3-yl]-acetic acid]	10 to 100
O=C(O)Cc1cc(OCc2ccccc2)cc(-c2cc(F)cc(F)c2)c1 [XXVII, (5-Benzyloxy-3′,5′-difluoro-biphenyl-3-yl)-acetic acid]	10 to 100
O=C(O)Cc1cc(OCc2ccc(C(=O)N3CCCC3)cc2)cc(-c2ccc(C(F)(F)F)cc2)c1 [LV, {5-[4-(Pyrrolidine-1-carbonyl)-benzyloxy]-4′-trifluoromethyl-biphenyl-3-yl}-acetic acid]	10 to 100
CNC(=O)c1ccc(COc2cc(CC(=O)O)cc(-c3ccc(C(F)(F)F)cc3)c2)cc1 [LIV, [5-(4-Methylcarbamoyl-benzyloxy)-4′-trifluoromethyl-biphenyl-3-yl]-acetic acid]	100 to 300
CN(C)C(=O)c1ccc(COc2cc(CC(=O)O)cc(-c3ccc(C(F)(F)F)cc3)c2)cc1 [LIII, [5-(4-Dimethylcarbamoyl-benzyloxy)-4′-trifluoromethyl-biphenyl-3-yl]-acetic acid]	100 to 300
COc1ccc(-c2cc(CC(=O)O)cc(OCc3ccccc3)c2)cc1 [XXIX, (5-Benzyloxy-4′-methoxy-biphenyl-3-yl)-acetic acid]	10 to 100
Cc1cccc(-c2cc(CC(=O)O)cc(OCc3ccccc3)c2)c1 [XXXII, (5-Benzyloxy-3′-methyl-biphenyl-3-yl)-acetic acid]	10 to 100
NC(=O)c1cccc(-c2cc(CC(=O)O)cc(OCc3ccccc3)c2)c1 [XV, (5-benzyloxy-3′-carbamoyl-biphenyl-3-yl)-acetic Acid]	10 to 100
O=C(O)Cc1cc(OCc2ccccc2)cc(-c2cccc(Cl)c2)c1 [XXXVII, (5-Benzyloxy-3′-chloro-biphenyl-3-yl)-acetic acid]	100 to 300
CC(C)Oc1cccc(-c2cc(CC(=O)O)cc(OCc3ccccc3)c2)c1 [XXVIII, (5-Benzyloxy-3′-isopropoxy-biphenyl-3-yl)-acetic acid]	10 to 100
O=C(O)Cc1cc(OCc2ccccc2)cc(-c2cccc(O)c2)c1 [XVI, (5-benzyloxy-3′-hydroxy-biphenyl-3-yl)-acetic Acid]	10 to 100
O=C(O)Cc1cc(OCc2ccccc2)cc(-c2ccccc2F)c1 [XXXIV, (5-Benzyloxy-2′-fluoro-biphenyl-3-yl)-acetic acid]	10 to 100
O=C(O)Cc1cc(OCc2ccccc2)cc(-c2ccc(F)cc2)c1 [XXII, (5-Benzyloxy-4′-fluoro-biphenyl-3-yl)-acetic acid]	10 to 100
O=C(O)Cc1cc(OCc2ccccc2)cc(-c2cccc(F)c2)c1 [XXXVI, (5-Benzyloxy-3′-fluoro-biphenyl-3-yl)-acetic acid]	10 to 100
NS(=O)(=O)c1ccc(-c2cc(CC(=O)O)cc(OCc3ccccc3)c2)cc1 [XVIII, (5-benzyloxy-4′-sulfamoyl-biphenyl-3-yl)-acetic Acid]	10 to 100
CC(C)Oc1ccc(-c2cc(CC(=O)O)cc(OCc3ccccc3)c2)cc1 [XXVI, (5-Benzyloxy-4′-isopropoxy-biphenyl-3-yl)-acetic acid]	10 to 100
CS(=O)(=O)c1ccc(-c2cc(CC(=O)O)cc(OCc3ccccc3)c2)cc1 [XVII, (5-benzyloxy-4′-methanesulfonyl-biphenyl-3-yl)-acetic Acid]	10 to 100
Cc1ccc(-c2cc(CC(=O)O)cc(OCc3ccccc3)c2)cc1 [XXXV, (5-Benzyloxy-4′-methyl-biphenyl-3-yl)-acetic acid]	10 to 100
O=C(O)Cc1cc(OCc2ccc(C(=O)N3CCOCC3)cc2)cc(-c2ccc(C(F)(F)F)cc2)c1 [XLVIII, {5-[4-(Morpholine-4-carbonyl)-benzyloxy]-4′-trifluoromethyl-biphenyl-3-yl}-acetic acid]	10 to 100
CS(=O)(=O)c1ccc(COc2cc(CC(=O)O)cc(-c3ccc(C(F)(F)F)cc3)c2)cc1 [IV, [5-(4-Methanesulfonyl-benzyloxy)-4′-trifluoromethyl-biphenyl-3-yl]-acetic acid]	10 to 100

Other lines, results leading:

IC50 [µM]	Compound
10 to 100	Cc1cc(COc2cc(CC(=O)O)cc(-c3ccc(C(F)(F)F)cc3)c2)no1 [XLIII, [5-(5-Methyl-isoxazol-3-ylmethoxy)-4′-trifluoromethyl-biphenyl-3-yl]-acetic acid]
10 to 100	COc1ccccc1-c1cc(CC(=O)O)cc(OCc2ccccc2)c1 [XXX, (5-Benzyloxy-2′-methoxy-biphenyl-3-yl)-acetic acid]
1 to 10	O=C(O)Cc1cc(OCCc2ccccc2)cc(-c2ccc(C(F)(F)F)cc2)c1 [LI, (5-Phenethyloxy-4′-trifluoromethyl-biphenyl-3-yl)-acetic acid]
1 to 10	O=C(O)Cc1cc(OCc2ccc(OC(F)(F)F)cc2)cc(-c2ccc(C(F)(F)F)cc2)c1 [LVII, [5-(4-Trifluoromethoxy-benzyloxy)-4′-trifluoromethyl-biphenyl-3-yl]-acetic acid]
10 to 100	Cc1ccccc1-c1cc(CC(=O)O)cc(OCc2ccccc2)c1 [XXXI, (5-Benzyloxy-2′-methyl-biphenyl-3-yl)-acetic acid]
10 to 100	COc1cccc(-c2cc(CC(=O)O)cc(OCc3ccccc3)c2)c1 [XIV, (5-benzyloxy-3′-methoxy-biphenyl-3-yl)-acetic Acid]
1 to 10	O=C(O)Cc1cc(OCc2ccccc2C(F)(F)F)cc(-c2ccc(C(F)(F)F)cc2)c1 [L, [4′-Trifluoromethyl-5-(2-trifluoromethyl-benzyloxy)-biphenyl-3-yl]-acetic acid]
1 to 10	O=C(O)Cc1cc(OCc2ccccc2)cc(-c2ccccc2)c1 [VII, (5-Benzyloxy-biphenyl-3-yl)-acetic acid]
1 to 10	O=C(O)Cc1cc(OCc2cccc(Cl)c2)cc(-c2ccc(C(F)(F)F)cc2)c1 [LIX, [5-(3-Chloro-benzyloxy)-4′-trifluoromethyl-biphenyl-3-yl]-acetic acid]
1 to 10	O=C(O)Cc1cc(OCc2ccccc2)cc(-c2ccc(Cl)cc2)c1 [XXIII, (5-Benzyloxy-4′-chloro-biphenyl-3-yl)-acetic acid]
1 to 10	O=C(O)Cc1cc(OCc2ccccc2)cc(-c2cccc(OC(F)(F)F)c2)c1 [XXXVIII, (5-Benzyloxy-3′-trifluoromethoxy-biphenyl-3-yl)-acetic acid]
1 to 10	O=C(O)Cc1cc(OCc2ccccc2)cc(-c2ccc(Cl)c(Cl)c2)c1 [XII, (5-Benzyloxy-3′,4′-dichloro-biphenyl-3-yl)-acetic acid]
1 to 10	O=C(O)Cc1cc(OCc2ccccc2Cl)cc(-c2ccc(C(F)(F)F)cc2)c1 [LVIII, [5-(2-Chloro-benzyloxy)-4′-trifluoromethyl-biphenyl-3-yl]-acetic acid]
1 to 10	O=C(O)Cc1cc(OCc2ccccc2)cc(-c2cc(C(F)(F)F)cc(C(F)(F)F)c2)c1 [XI, (5-Benzyloxy-3′,5′-bis-trifluoromethyl-biphenyl-3-yl)-acetic acid]
1 to 10	O=C(O)Cc1cc(OCc2ccc(Cl)cc2)cc(-c2ccc(C(F)(F)F)cc2)c1 [XLI, [5-(4-Chloro-benzyloxy)-4′-trifluoromethyl-biphenyl-3-yl]-acetic acid]
1 to 10	O=C(O)Cc1cc(OCc2cccc(C(F)(F)F)c2)cc(-c2ccc(C(F)(F)F)cc2)c1 [XLIX, [4′-Trifluoromethyl-5-(3-trifluoromethyl-benzyloxy)-biphenyl-3-yl]-acetic acid]
1 to 10	Cc1ccc(COc2cc(CC(=O)O)cc(-c3ccc(C(F)(F)F)cc3)c2)cc1 [LX, [5-(4-Methyl-benzyloxy)-4′-trifluoromethyl-biphenyl-3-yl]-acetic acid]
1 to 10	CC(C)c1ccc(COc2cc(CC(=O)O)cc(-c3ccc(C(F)(F)F)cc3)c2)cc1 [II, [5-(4-Isopropyl-benzyloxy)-4′-trifluoromethyl-biphenyl-3-yl]-acetic acid]
